Data reported in PubChem BioAssay (NCI).
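48-hour exposure; five concentrations; linearly interpolated endpoints. TGI is the concentration that stops growth completely.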

Assays:
Assay in all cases: growth of human tumour cells (NCI), 48 h
[1] = test system: 786-0 renal
[2] = test system: A498 renal
[3] = test system: A549 NSCLC
[4] = test system: ACHN renal
[5] = test system: CAKI-1 renal
[6] = test system: CCRF-CEM leukemia
[7] = test system: COLO 205 colon
[8] = test system: DLD-1 colon
[9] = test system: DMS 114 small cell lung
[10] = test system: DMS 273 small cell lung
[11] = test system: HCC-2998 colon
[12] = test system: HCT-116 colon
[13] = test system: HCT-15 colon
[14] = test system: HL-60(TB) leukemia
[15] = test system: HOP-18 NSCLC
[16] = test system: HOP-62 NSCLC
[17] = test system: HOP-92 NSCLC
[18] = test system: HT29 colon
[19] = test system: IGROV1 ovarian
[20] = test system: K-562 leukemia
[21] = test system: KM12 colon
[22] = test system: KM20L2 colon
[23] = test system: LOX IMVI melanoma
[24] = test system: LXFL 529 NSCLC
[25] = test system: M14 melanoma
[26] = test system: M19-MEL melanoma
[27] = test system: MALME-3M melanoma
[28] = test system: MOLT-4 leukemia
[29] = test system: NCI-H226 lung
[30] = test system: NCI-H23 lung
[31] = test system: NCI-H460 lung
[32] = test system: NCI-H522 lung
[33] = test system: OVCAR-3 ovarian
[34] = test system: OVCAR-4 ovarian
[35] = test system: OVCAR-5 ovarian
[36] = test system: OVCAR-8 ovarian
[37] = test system: RPMI-8226 leukemia
[38] = test system: RXF 393 renal
[39] = test system: SF-268 CNS
[40] = test system: SF-295 CNS
[41] = test system: SF-539 CNS
[42] = test system: SK-MEL-2 melanoma
[43] = test system: SK-MEL-28 melanoma
[44] = test system: SK-MEL-5 melanoma
[45] = test system: SK-OV-3 ovarian
[46] = test system: SN12C renal
[47] = test system: SNB-19 CNS
[48] = test system: SNB-75 CNS
[49] = test system: SNB-78 CNS
[50] = test system: SR leukemia
[51] = test system: SW-620 colon
[52] = test system: TK-10 renal
[53] = test system: U251 CNS
[54] = test system: UACC-257 melanoma
[55] = test system: UACC-62 melanoma
[56] = test system: UO-31 renal
[57] = test system: EKVX NSCLC

CCCCCCCCCCCCCCCC/C(C(=O)OC)=C(/O)C(=O)OCC gave a TGI [1] of over 100 µM, a TGI [2] of over 100 µM and a TGI [3] of over 100 µM. The TGI [4] was over 100 µM, the TGI [5] was over 100 µM and the TGI [6] was over 100 µM. It also gave a TGI [7] of over 100 µM, a TGI [8] of over 100 µM and a TGI [9] of over 100 µM. It also gave a TGI [10] of over 100 µM, a TGI [11] of over 100 µM and a TGI [12] of over 100 µM. The TGI [13] was over 100 µM, the TGI [14] was over 100 µM and the TGI [15] was over 100 µM. For the same compound, the TGI [16] was over 100 µM, the TGI [17] was 84.9 µM and the TGI [18] was over 100 µM. For the same compound, the TGI [19] was over 100 µM, the TGI [20] was over 100 µM and the TGI [21] was over 100 µM. The TGI [22] was over 100 µM, the TGI [23] was over 100 µM and the TGI [24] was over 100 µM. It also gave a TGI [25] of over 100 µM, a TGI [26] of over 100 µM and a TGI [27] of over 100 µM. The TGI [28] was over 100 µM, the TGI [29] was over 100 µM and the TGI [30] was over 100 µM. The TGI [31] was over 100 µM, the TGI [32] was over 100 µM and the TGI [33] was over 100 µM. For the same compound, the TGI [34] was over 100 µM, the TGI [35] was over 100 µM and the TGI [36] was over 100 µM. The TGI [37] was over 100 µM, the TGI [38] was over 100 µM and the TGI [39] was over 100 µM. For the same compound, the TGI [40] was over 100 µM, the TGI [41] was over 100 µM and the TGI [42] was over 100 µM. For the same compound, the TGI [43] was over 100 µM, the TGI [44] was over 100 µM and the TGI [45] was over 100 µM. It also gave a TGI [46] of over 100 µM, a TGI [47] of over 100 µM and a TGI [48] of over 100 µM. For the same compound, the TGI [49] was over 100 µM, the TGI [50] was over 100 µM and the TGI [51] was over 100 µM. It also gave a TGI [52] of over 100 µM, a TGI [53] of over 100 µM and a TGI [54] of over 100 µM. The TGI [55] was over 100 µM and the TGI [56] was over 100 µM.
In the case of O=C(c1ccccc1)N1CCN2CCN=C(c3ccccc3)C21c1ccccc1 (stereo unspecified), the TGI [1] is reported as over 100 µM, the TGI [2] is reported as over 100 µM and the TGI [3] is reported as over 100 µM. The TGI [4] was over 100 µM, the TGI [6] was over 100 µM and the TGI [7] was over 100 µM. It also gave a TGI [8] of over 100 µM, a TGI [9] of over 100 µM and a TGI [10] of over 100 µM. It also gave a TGI [57] of over 100 µM, a TGI [11] of over 100 µM and a TGI [12] of over 100 µM. For the same compound, the TGI [14] was over 100 µM, the TGI [15] was over 100 µM and the TGI [16] was over 100 µM. For the same compound, the TGI [17] was over 100 µM, the TGI [18] was over 100 µM and the TGI [19] was over 100 µM. The TGI [20] was over 100 µM, the TGI [21] was over 100 µM and the TGI [22] was over 100 µM. For the same compound, the TGI [23] was over 100 µM, the TGI [24] was over 100 µM and the TGI [25] was over 100 µM. It also gave a TGI [26] of over 100 µM, a TGI [27] of over 100 µM and a TGI [28] of over 100 µM. For the same compound, the TGI [29] was over 100 µM, the TGI [30] was over 100 µM and the TGI [31] was over 100 µM. The TGI [33] was over 100 µM, the TGI [34] was over 100 µM and the TGI [36] was over 100 µM. The TGI [37] was over 100 µM, the TGI [38] was over 100 µM and the TGI [40] was over 100 µM. It also gave a TGI [41] of over 100 µM, a TGI [42] of over 100 µM and a TGI [43] of over 100 µM. It also gave a TGI [44] of over 100 µM, a TGI [45] of over 100 µM and a TGI [47] of over 100 µM. For the same compound, the TGI [48] was over 100 µM, the TGI [49] was over 100 µM and the TGI [51] was over 100 µM. The TGI [52] was over 100 µM, the TGI [53] was over 100 µM and the TGI [54] was over 100 µM. For the same compound, the TGI [55] was over 100 µM and the TGI [56] was over 100 µM.
